# pIC50: −log10 of the molar value.
# System: PC-3 cells
# Experiment: Cell viability analysis (MTT) in PC-3 cells
# Format: cell-based, human
# Conditions: Homo sapiens; inducing apoptotic death in PC-3 cells / PC-3 cell viability; read-out: IC50 PC-3
# Procedure, shortened: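 Viability of PC-3 (p53−/−) prostate cancer cells measured by MTT in six replicates after 24 h growth in 10% FBS medium. Compounds (DMSO ≦0.1% final) applied in 1% serum RPMI 1640 for varying times; 0.5 mg/ml MTT for 2 h at 37° C., formazan dissolved in DMSO, absorbance read at 570 nm.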
structure (smiles),measurement,value
"NCC(=O)Nc1ccc(-n2nc(C(F)(F)F)cc2-c2ccc3c(ccc4ccccc43)c2)cc1 [Compound 70, 2-Amino-N-{4-[5-(2-phenanthrenyl)-3-(trifluoromethyl)-1H-pyrazol-1-yl]-phenyl}-acetamide]",pIC50,5.30
